Counter-ions that a name gives are not always drawn.
Columns and labels:
purified rat nNOS = purified rat nNOS (Rattus norvegicus, UniProt P29476); assay: NO-hemoglobin; assay type: biochemical; settings: for drop in potency with rnNOS relative to 12: compared with 12
[1] = PAMPA-BBB parallel artificial membrane permeability assay; assay type: in vitro ADME; settings: 17 h, 200 μM, triplicate, in-house conditions
human eNOS = human eNOS (Homo sapiens, UniProt P29474); assay: NO-hemoglobin; assay type: biochemical; settings: hn/he compared to lead 9
human nNOS = human nNOS (Homo sapiens, UniProt P29475); assay: NO-hemoglobin; assay type: biochemical; settings: for drop in potency with hnNOS relative to 12: compared with 12

Structure (SMILES) | Determined Pe [1] | drop in potency with hnNOS relative to 12 (human nNOS) [fold] | also measured
CNCC#Cc1cc(C)cc(N)n1 [Compound 10, 4-methyl-6-(3-(methylamino)prop-1-yn-1-yl)pyridin-2-amine dihydrochloride] |  |  | drop in potency with rnNOS relative to 12 (purified rat nNOS): 3 fold
Cc1cc(N)nc(C#CCN2CCN(C)CC2)c1 [Compound 13, 4-methyl-6-(3-(4-methylpiperazin-1-yl)prop-1-yn-1-yl)pyridin-2-amine dihydrochloride] |  | ~73 | 
Cc1cc(N)nc(C#CCCN(C)C)c1 [Compound 15, 6-(4-(dimethylamino)but-1-yn-1-yl)-4-methylpyridin-2-amine dihydrochloride] |  | 11 | 
Cc1cc(N)nc(C#CCN2CCC(F)(F)CC2)c1 [Compound 19, 6-(3-(4,4-difluoropiperidin-1-yl)prop-1-yn-1-yl)-4-methylpyridin-2-amine] | 21.1 10^−6 cm s^−1 | ~49 | drop in potency with rnNOS relative to 12 (purified rat nNOS): about 61 fold

Second part, led by results:

Determined Pe [1] | drop in potency with hnNOS relative to 12 (human nNOS) [fold] | Structure (SMILES) | also measured
2.0 10^−6 cm s^−1 |  | Cc1cc(N)nc(CCCN(C)C)c1 [Compound 12, 6-(3-(dimethylamino)propyl)-4-methylpyridin-2-amine dihydrochloride] | drop in heNOS selectivity as compared to lead 9 (human eNOS): 8 fold
 | ~2 | Cc1cc(N)nc(CCCCN(C)C)c1 [Compound 16, 6-(4-(dimethylamino)butyl)-4-methylpyridin-2-amine dihydrochloride] | 
 | ~17 | Cc1cc(N)nc(C#CCN2CC(F)(F)C2)c1 [Compound 17, 6-(3-(3,3-difluoroazetidin-1-yl)prop-1-yn-1-yl)-4-methylpyridin-2-amine dihydrochloride] | better affinity than 19 with rnNOS (purified rat nNOS; compared with 19): 3 fold; better affinity than 19 with hnNOS (human nNOS; compared with 19): 3 fold
17.3 10^−6 cm s^−1 |  | Cc1cc(N)nc(CCCN2CCC(F)(F)CC2)c1 [Compound 20, 6-(3-(4,4-difluoropiperidin-1-yl)propyl)-4-methylpyridin-2-amine dihydrochloride] | 
